These results are taken from patent publication US20210386750A1, “METHODS AND MATERIALS FOR TREATING CANCER” (Mayo Foundation for Medical Education and Research, priority 2018, published 2021).

Test [1] deals with OVCAR-8 cells. Put plainly: Clonogenic (colony formation) assay in OVCAR-8 cells. Particulars: for Sensitivity of BRCA1-depleted cells to the agent versus control luciferase siRNA cells: OVCAR-8, BRCA1 siRNAs, colony formation 8-10 days (FIG. 4A, 14, 22A); for Sensitization to the agent by NNMT overexpression: OVCAR-8 clones stably expressing Myc-DDK-NNMT versus empty vector, 8-10 days (FIG. 16, 24).
Procedure: A portion of the cells used in A and C were subjected to colony formation assays using olaparib, a PARP inhibitor (as a positive control for HR deficiency).
(A-C) OVCAR-8 and PEA1 cells were transfected with control luciferase (siLuc) or BRCA1 siRNAs. 48 hours later, the cells were trypsinized, immunoblotted for BRCA1 and HSP90 (bottom panels), and subjected to colony formation assays.
The cells were cultured for 8-10 days to allow colony formation.

Test [2] has as its system PEA1 cells. Put plainly: Clonogenic (colony formation) assay in PEA1 cells. Particulars: PEA1, BRCA1 siRNAs, colony formation 8-10 days (FIG. 4B, 14, 22B).
Procedure: OVCAR-8 (A) and PEA1 (B) cells were transfected with control luciferase (Luc) or BRCA1 siRNAs. 48 hours later, the cells were trypsinized, plated in 6-well plates, and subjected to colony formation assays. The indicated concentrations of ceritinib was added 12 hours after plating.
In test [3] the test system is HCT-116 colon cancer cells. In words: Colony formation assay in HCT-116 colon cancer clones (empty vector or Myc-DDK-NNMT). The class given is cell-based. The conditions noted are these: HCT-116 Myc-NNMT clones #4, #8, #22 versus empty vector, 8-10 days, n=1 (FIG. 26). How it is done: Clones of HCT-116 colon cancer cells stably transfected with empty vector (pcDNA3) or the Myc-DDK-NNMT expression plasmid (Myc-NNMT Clone #4, #8, #22) were plated as single cells, allowed to adhere for 12 hours, and then treated with ceritinib. […] Data are means±SEM from triplicate wells, n=1 experiment.
Clonogenic assays were performed as described elsewhere (see, e.g., Wagner et al., Mol. Pharmacol., 76:208-14 (2009)).

“Also recorded” adds a separate entry of the source.

With `O=C(Oc1cccc(F)c1OC(=O)c1cccc(O)c1)c1cccc(O)c1` [WZB117], the “Sensitivity of BRCA1-depleted cells to the agent versus control luciferase siRNA cells” value in test [1] and in test [2] was “sensitized” in each case.

On to `Cc1cc(Nc2ncc(Cl)c(Nc3ccccc3S(=O)(=O)C(C)C)n2)c(OC(C)C)cc1C1CCNCC1` [ceritinib], for which the “Sensitivity of BRCA1-depleted cells to the agent versus control luciferase siRNA cells” value in test [1] and in test [2] was “sensitizes” in each case. Further, the “Sensitization to the agent by NNMT overexpression” value in test [1] and in test [3] was “sensitizes” throughout.

For `O=C(c1cc(Cc2n[nH]c(=O)c3ccccc23)ccc1F)N1CCN(C(=O)C2CC2)CC1` [olaparib], the “Sensitization to the agent by depletion of BRCA2 or RAD51” value in test [1] (OVCAR-8, BRCA2 or RAD51 siRNAs (FIG. 12B, 12D, 15)) is given as “increased sensitivity; also recorded: did sensitize”.

Turning to `CN(C)c1cc(NC(=O)CNC(C)(C)C)c(O)c2c1C[C@H]1C[C@H]3[C@H](N(C)C)C(O)=C(C(N)=O)C(=O)[C@@]3(O)C(O)=C1C2=O` [tigecycline], in test [1], the “Sensitivity of BRCA1-depleted cells to the agent versus control luciferase siRNA cells” value is given as “sensitized” and the “Sensitization to the agent by NNMT overexpression” value is “sensitizes”. In addition, in test [2], the “Sensitivity of BRCA1-depleted cells to the agent versus control luciferase siRNA cells” value is “sensitized”.
